PMC10648852, “Molecular drivers of resistance to sulbactam-durlobactam in contemporary clinical isolates of Acinetobacter baumannii” (Antimicrobial Agents and Chemotherapy, 2023)
Read-outs that look alike come from different tables or passages of the source.

Experiments:
Assay in all cases: microbe, parasite or virus in culture
[1] = tested on: ABC clinical isolates with SUL-DUR MIC > 4 µg/mL; type: cell-based, Acinetobacter baumannii-calcoaceticus complex; conditions: Acinetobacter
Protocol: (§1) The following report describes the genomic analysis of these isolates for likely resistance mechanisms. Biochemical analysis of purified PBP3 and phenotypic analyses of both clinical and isogenic strains were also conducted to determine the relative impact of key resistance determinants to SUL-DUR antibacterial activity.
(§2) Antimicrobial susceptibility testing was performed using broth microdilution following standardized methods established by the Clinical Laboratory Standards Institute (CLSI) ([35], [36]). […] MIC values were interpreted using CLSI breakpoints for all antimicrobial agents except those for which CLSI breakpoints are not available ([35]). SUL-DUR was tested as twofold dilutions of sulbactam in combination with a fixed concentration of 4 µg/mL durlobactam ([35]).

[2] = tested on: A. nosocomialis clinical isolate; type: cell-based; conditions: Acinetobacter nosocomialis, isolate ARC7023 (IHMA 2118812), France, BSI, 2019, read-out: MIC
Protocol: as §1, §2

[3] = tested on: A. pittii clinical isolates; type: cell-based; conditions: Acinetobacter pittii
Protocol: as §1, §2

[4] = tested on: A. baumannii clinical isolates; type: cell-based; conditions: Acinetobacter baumannii
Protocol: as §1, §2

Structure (SMILES): CN(C)c1cc(NC(=O)CNC(C)(C)C)c(O)c2c1C[C@H]1C[C@H]3[C@H](N(C)C)C(O)=C(C(N)=O)C(=O)[C@@]3(O)C(O)=C1C2=O [TIG, tigecycline]
- MIC50 [1]: 1 µg/mL
- MIC90 [1]: 2 µg/mL
- MIC ([1]; read-out: MIC Max): 16 µg/mL
- MIC ([1]; read-out: MIC Min): 0.13 µg/mL
- MIC [2]: 0.25 µg/mL
- MIC ([3]; isolate ARC6949 (IHMA 1898982), Romania, RTI, 2018, read-out: MIC): 0.5 µg/mL
- MIC ([3]; isolate ARC6951 (IHMA 1776233), Philippines, RTI, 2018, read-out: MIC): 0.25 µg/mL
- MIC ([3]; isolate ARC6952 (IHMA 1899008), Romania, RTI, 2018, read-out: MIC): 1 µg/mL
- MIC ([3]; isolate ARC7087 (IHMA 2212062), Colombia, BSI, 2020, read-out: MIC): 0.25 µg/mL
- MIC ([4]; isolate ARC6644 (IHMA 1420327), Mexico, UTI, 2016, read-out: MIC): 1 µg/mL
- MIC ([4]; isolate ARC6645 (IHMA 1435703), France, UTI, 2016, read-out: MIC): 0.25 µg/mL
- MIC ([4]; isolate ARC6646 (IHMA 1484127), United States, RTI, 2016, read-out: MIC): 1 µg/mL
- MIC ([4]; isolate ARC6647 (IHMA 1386786), Argentina, RTI, 2016, read-out: MIC): 0.12 µg/mL
- MIC ([4]; isolate ARC6648 (IHMA 1407634), Spain, RTI, 2016, read-out: MIC): 1 µg/mL
- MIC ([4]; isolate ARC6650 (IHMA 1457337), Argentina, RTI, 2016, read-out: MIC): 1 µg/mL
- MIC ([4]; isolate ARC6652 (IHMA 1465642), Belgium, RTI, 2016, read-out: MIC): 0.25 µg/mL
- MIC ([4]; isolate ARC6653 (IHMA 1308777), Vietnam, RTI, 2016, read-out: MIC): 1 µg/mL
- MIC ([4]; isolate ARC6799 (IHMA 1562935), Spain, UTI, 2017, read-out: MIC): 1 µg/mL
- MIC ([4]; isolate ARC6800 (IHMA 1557526), Turkey, RTI, 2017, read-out: MIC): 1 µg/mL
- MIC ([4]; isolate ARC6801 (IHMA 1662094), Thailand, RTI, 2017, read-out: MIC): 1 µg/mL
- MIC ([4]; isolate ARC6802 (IHMA 1557073), Spain, UTI, 2017, read-out: MIC): 1 µg/mL
- MIC ([4]; isolate ARC6803 (IHMA 1589408), Belgium, UTI, 2017, read-out: MIC): 1 µg/mL
- MIC ([4]; isolate ARC6805 (IHMA 1558650), United States, RTI, 2017, read-out: MIC): 1 µg/mL
- MIC ([4]; isolate ARC6808 (IHMA 1557168), Spain, RTI, 2017, read-out: MIC): 1 µg/mL
- MIC ([4]; isolate ARC6809 (IHMA 1699528), Guatemala, RTI, 2017, read-out: MIC): 0.5 µg/mL
- MIC ([4]; isolate ARC6810 (IHMA 1699548), Guatemala, RTI, 2017, read-out: MIC): 1 µg/mL
- MIC ([4]; isolate ARC6812 (IHMA 1699530), Guatemala, RTI, 2017, read-out: MIC): 0.5 µg/mL
- MIC ([4]; isolate ARC6813 (IHMA 1699543), Guatemala, UTI, 2017, read-out: MIC): 0.25 µg/mL
- MIC ([4]; isolate ARC6814 (IHMA 1699512), Guatemala, RTI, 2017, read-out: MIC): 1 µg/mL
- MIC ([4]; isolate ARC6815 (IHMA 1699513), Guatemala, RTI, 2017, read-out: MIC): 0.5 µg/mL
- MIC ([4]; isolate ARC6816 (IHMA 1699521), Guatemala, RTI, 2017, read-out: MIC): 2 µg/mL
- MIC ([4]; isolate ARC6817 (IHMA 1699523), Guatemala, RTI, 2017, read-out: MIC): 0.5 µg/mL
- MIC ([4]; isolate ARC6818 (IHMA 1683261), Thailand, RTI, 2017, read-out: MIC): 0.25 µg/mL
- MIC ([4]; isolate ARC6819 (IHMA 1683267), Thailand, RTI, 2017, read-out: MIC): 2 µg/mL
- MIC ([4]; isolate ARC6820 (IHMA 1647876), Argentina, RTI, 2017, read-out: MIC): 0.5 µg/mL
- MIC ([4]; isolate ARC6821 (IHMA 1699517), Guatemala, RTI, 2017, read-out: MIC): 0.25 µg/mL
- MIC ([4]; isolate ARC6822 (IHMA 1637626), Guatemala, RTI, 2017, read-out: MIC): 0.25 µg/mL
- MIC ([4]; isolate ARC6823 (IHMA 1620872), Greece, SSSI, 2017, read-out: MIC): 1 µg/mL
- MIC ([4]; isolate ARC6824 (IHMA 1625487), Argentina, BSI, 2017, read-out: MIC): 0.5 µg/mL
- MIC ([4]; isolate ARC6937 (IHMA 1562926), Spain, UTI, 2017, read-out: MIC): 1 µg/mL
- MIC ([4]; isolate ARC6950 (IHMA 1820064), Israel, RTI, 2018, read-out: MIC): 0.5 µg/mL
- MIC ([4]; isolate ARC6953 (IHMA 1909827), Turkey, IAI, 2018, read-out: MIC): 0.5 µg/mL
- MIC ([4]; isolate ARC6954 (IHMA 1838192), Guatemala, SSSI, 2018, read-out: MIC): 0.5 µg/mL
- MIC ([4]; isolate ARC6955 (IHMA 1825425), United States, RTI, 2018, read-out: MIC): 0.5 µg/mL
- MIC ([4]; isolate ARC7008 (IHMA 2009813), Thailand, BSI, 2019, read-out: MIC): 1 µg/mL
- MIC ([4]; isolate ARC7009 (IHMA 2043611), United States, UTI, 2019, read-out: MIC): 1 µg/mL
- MIC ([4]; isolate ARC7010 (IHMA 2043398), United States, RTI, 2019, read-out: MIC): 1 µg/mL
- MIC ([4]; isolate ARC7011 (IHMA 2104553), Germany, RTI, 2019, read-out: MIC): 2 µg/mL
- MIC ([4]; isolate ARC7012 (IHMA 2010001), Thailand, RTI, 2019, read-out: MIC): 1 µg/mL
- MIC ([4]; isolate ARC7013 (IHMA 1962831), Argentina, RTI, 2019, read-out: MIC): 0.12 µg/mL
- MIC ([4]; isolate ARC7014 (IHMA 2045328), Guatemala, IAI, 2019, read-out: MIC): 1 µg/mL
- MIC ([4]; isolate ARC7015 (IHMA 2045327), Guatemala, UTI, 2019, read-out: MIC): 0.5 µg/mL
- MIC ([4]; isolate ARC7016 (IHMA 2148441), Brazil, BSI, 2019, read-out: MIC): 0.5 µg/mL
- MIC ([4]; isolate ARC7017 (IHMA 2148446), Brazil, BSI, 2019, read-out: MIC): 0.5 µg/mL
- MIC ([4]; isolate ARC7018 (IHMA 2045454), Guatemala, IAI, 2019, read-out: MIC): 1 µg/mL
- MIC ([4]; isolate ARC7019 (IHMA 2114463), Thailand, RTI, 2019, read-out: MIC): 16 µg/mL
- MIC ([4]; isolate ARC7020 (IHMA 2045326), Guatemala, RTI, 2019, read-out: MIC): 1 µg/mL
- MIC ([4]; isolate ARC7021 (IHMA 1966347), Guatemala, RTI, 2019, read-out: MIC): 0.5 µg/mL
- MIC ([4]; isolate ARC7022 (IHMA 2045319), Guatemala, IAI, 2019, read-out: MIC): 2 µg/mL
- MIC ([4]; isolate ARC7024 (IHMA 2059448), Turkey, RTI, 2019, read-out: MIC): 2 µg/mL
- MIC ([4]; isolate ARC7025 (IHMA 2002121), Spain, RTI, 2019, read-out: MIC): 1 µg/mL
- MIC ([4]; isolate ARC7026 (IHMA 2104494), Guatemala, BSI, 2019, read-out: MIC): 1 µg/mL
- MIC ([4]; isolate ARC7082 (IHMA 2160640), Belgium, BSI, 2020, read-out: MIC): 1 µg/mL
- MIC ([4]; isolate ARC7083 (IHMA 2163687), United States, RTI, 2020, read-out: MIC): 2 µg/mL
- MIC ([4]; isolate ARC7084 (IHMA 2189596), Germany, RTI, 2020, read-out: MIC): 2 µg/mL
- MIC ([4]; isolate ARC7085 (IHMA 2205747), Guatemala, IAI, 2020, read-out: MIC): 0.5 µg/mL
- MIC ([4]; isolate ARC7086 (IHMA 2207563), Israel, RTI, 2020, read-out: MIC): 2 µg/mL
- MIC ([4]; isolate ARC7088 (IHMA 2215554), Turkey, BSI, 2020, read-out: MIC): 2 µg/mL
- MIC ([4]; isolate ARC7089 (IHMA 2240345), Argentina, BSI, 2020, read-out: MIC): 1 µg/mL
- MIC ([4]; isolate ARC7090 (IHMA 2244410), Poland, RTI, 2020, read-out: MIC): 2 µg/mL
- MIC ([4]; isolate ARC7091 (IHMA 2244564), Australia, RTI, 2020, read-out: MIC): 0.5 µg/mL
- MIC ([4]; isolate ARC7092 (IHMA 2258772), United States, BSI, 2020, read-out: MIC): 1 µg/mL
- MIC ([4]; isolate ARC7093 (IHMA 2258783), United States, RTI, 2020, read-out: MIC): 2 µg/mL
- MIC ([4]; isolate ARC7094 (IHMA 2296423), Turkey, RTI, 2020, read-out: MIC): 1 µg/mL
- MIC ([4]; isolate ARC7095 (IHMA 2320843), Turkey, BSI, 2020, read-out: MIC): 0.5 µg/mL
- MIC ([4]; isolate ARC7156 (IHMA 2455450), Greece, RTI, 2021, read-out: MIC): 2 µg/mL
- MIC ([4]; isolate ARC7158 (IHMA 2523738), Italy, BSI, 2021, read-out: MIC): 1 µg/mL
- MIC ([4]; isolate ARC7159 (IHMA 2456229), Malaysia, RTI, 2021, read-out: MIC): 1 µg/mL
- MIC ([4]; isolate ARC7160 (IHMA 2458626), Thailand, RTI, 2021, read-out: MIC): 2 µg/mL
- MIC ([4]; isolate ARC7161 (IHMA 2429252), Ukraine, RTI, 2021, read-out: MIC): 2 µg/mL
- MIC ([4]; isolate ARC7162 (IHMA 2411847), United States, BSI, 2021, read-out: MIC): 1 µg/mL
- MIC ([4]; isolate ARC7163 (IHMA 2477704), United States, BSI, 2021, read-out: MIC): 1 µg/mL
